This is an account of results in ChEMBL document CHEMBL5244230, “Artemisinin-derived hybrids and their anticancer activity” (Eur J Med Chem, 2020).

Values joined by “and” are separate entries in the source; they are usually repeats but may differ in a detail not shown here. Identical values can stand only once.

The target in data set [1] is c-Jun N-terminal kinase, JNK (Homo sapiens, UniProt P45983+P53779+P45984). Kind of data set: Inhibition of N-terminal c-Jun phosphorylation in human HeLa cells. Type of data set: cell-based.
The subject of data set [2] is MCF7. Briefly: Anticancer activity against human MCF7 cells. Type of data set: functional, cell-based.
Data set [3] concerns C2G cell line. Kind of data set: Antiproliferative activity against mouse C2G cell line. Type of data set: functional, cell-based.
Data set [4] has as its system C2D cell line. Kind of data set: Antiproliferative activity against mouse C2D cell line. Type of data set: functional, cell-based.
The test system of data set [5] is TRAMP-C2H. Kind of data set: Antiproliferative activity against mouse TRAMP-C2H cells. Type of data set: functional, cell-based.
Data set [6] concerns TRAMP-C1A. Kind of data set: Antiproliferative activity against mouse TRAMP-C1A cells. Type of data set: functional, cell-based.
A short description of data set [7]: Potency index, ratio of dihydroartemisinin IC50 to test compound IC50 for anticancer activity against mouse […] cells. Type of data set: functional.
The test system of data set [8] is MCF7. Briefly: Anticancer activity against human MCF7 cells assessed as inhibition of cell growth. Type of data set: functional, cell-based.
Data set [9] is described as follows: Anticancer activity against human Lu1 cells. Type of data set: functional, cell-based.
Data set [10] has as its system P388. Kind of data set: Anticancer activity against mouse P388 cells. Type of data set: functional, cell-based.
Data set [11] concerns MCF7. Briefly: Potency index, ratio of dihydroartemisinin IC50 to test compound IC50 for anticancer activity against human MCF7 cells. Type of data set: functional.
Data set [12] can be described thus: Potency index, ratio of dihydroartemisinin IC50 to test compound IC50 for anticancer activity against human Lu1 cells. Type of data set: functional.
For data set [13], the system named is HL-60. Briefly: Potency index, ratio of dihydroartemisinin IC50 to test compound IC50 for anticancer activity against human HL-60 cells. Type of data set: functional.
Data set [14] deals with HL-60. Briefly: Anticancer activity against human HL-60 cells. Type of data set: functional, cell-based.
Data set [15] concerns LNCaP. Briefly: Cytotoxicity against human LNCaP cells assessed as inhibition of cell growth measured for 72 hrs by MTT assay. Type of data set: functional.
For data set [16], the system named is HeLa. Briefly: Antiproliferative activity against human HeLa cells assessed as reduction in cell viability. Type of data set: functional, cell-based.
The subject of data set [17] is HeLa. Kind of data set: Potency index, ratio of artesunate IC50 to test compound IC50 for antiproliferative activity against human HeLA cells assessed as inhibition of cell growth. Type of data set: functional.
In data set [18] the test system is TRAMP-C2H. Briefly: Cytotoxicity against mouse TRAMP-C2H cells assessed as inhibition of cell growth measured for 72 hrs by MTT assay. Type of data set: functional.
Data set [19] relates to HCT-116. Kind of data set: Potency index, ratio of artesunate IC50 to test compound IC50 for antiproliferative activity against human HCT-116 cells assessed as inhibition of cell growth. Type of data set: functional.
The test system of data set [20] is HCT-116. Briefly: Antiproliferative activity against human HCT-116 cells assessed as reduction in cell viability. Type of data set: functional, cell-based. Particulars: hct-116.
For data set [21], the system named is TRAMP-C1A. Briefly: Cytotoxicity against mouse TRAMP-C1A cells assessed as inhibition of cell growth measured for 72 hrs by MTT assay. Type of data set: functional. For orientation: Formazan colour is commonly taken as a measure of viable cells.
Data set [22] relates to Leukemia cell. Kind of data set: Potency index, ratio of artesunate IC50 to test compound IC50 for antiproliferative activity against human Leukemia cell assessed as inhibition of cell growth. Type of data set: functional.
The subject of data set [23] is Leukemia cell. Kind of data set: Antiproliferative activity against human Leukemia cell assessed as reduction in cell viability. Type of data set: functional, cell-based.
The nature of data set [24]: Antiproliferative activity against human 1205Lu cells. Type of data set: functional, cell-based.
The nature of data set [25]: Cytotoxicity against human HFF cells. Type of data set: toxicity, cell-based.
Data set [26] is described as follows: Potency index, ratio of artesunate IC50 to test compound IC50 for antiproliferative activity against human 1205Lu cells assessed as inhibition of cell growth. Type of data set: functional.
Data set [27] has as its system HCT-116. Kind of data set: Antiproliferative activity against human HCT-116 cells. Type of data set: functional, cell-based.
The test system of data set [28] is HeLa. Kind of data set: Antiproliferative activity against human HeLa cells. Type of data set: functional, cell-based.

On to `Cc1cc(N/N=C/c2ccc(O[C@H]3O[C@@H]4O[C@@]5(C)CC[C@H]6[C@H](C)CC[C@@H]([C@H]3C)[C@@]46OO5)cc2)c2cc(Cl)ccc2n1`, for which the IC50 (in general, the concentration at which inhibition is half-maximal) in data set [1] was determined as 7.5 µM; in [2] it was 15 µM.

In the case of `C[C@H]1[C@@H](OC(COC(=O)c2cc[n+]([O-])cc2)C[C@H]2O[C@@H]3O[C@@]4(C)CC[C@H]5[C@H](C)CC[C@@H]([C@H]2C)[C@@]35OO4)O[C@@H]2O[C@@]3(C)CC[C@H]4[C@H](C)CC[C@@H]1[C@@]24OO3` (stereo partly specified), the IC50 in data set [3], in data set [4], in [5] and in data set [6] was 0.0361 µM in each case.

For the compound `CC1CCNC(C(=O)c2ccc(-n3cc(CO[C@H]4O[C@@H]5O[C@@]6(C)CC[C@H]7[C@H](C)CC[C@@H]([C@H]4C)[C@@]57OO6)nn3)cc2)C1` (stereo partly specified), the “Ratio IC50” value in data set [7], in [11], in [12] and in [13] was 10.5 in each case. The IC50 in data set [8], in [9], in data set [10], in data set [2] and in [14] was 2.5 µM throughout.

With `C[C@H]1[C@@H](CC(COP(=O)(Oc2ccccc2)Oc2ccccc2)C[C@H]2O[C@@H]3O[C@]4(C)CC[C@H]5[C@H](C)CC[C@@H]([C@H]2C)[C@@]35OO4)O[C@@H]2O[C@@]3(C)CC[C@H]4[C@H](C)CC[C@@H]1[C@@]24OO3` (stereo partly specified), the GI50 – broadly, the concentration that inhibits growth by half – was 0.0344 µM in data set [15], 0.0448 µM in [18] and 0.0319 µM in [21]. Besides, the IC50 in data set [16] is 0.04 µM; in data set [20] it was 0.04 µM and 0.19 µM; in data set [23], 0.1 µM. For the same compound, the “Ratio IC50” value in data set [17], in data set [19] and in data set [22] was 68.8 each time.

`C[C@H]1[C@@H](CC(C[C@H]2O[C@@H]3O[C@@]4(C)CC[C@H]5[C@H](C)CC[C@@H]([C@H]2C)[C@@]35OO4)CS(=O)(=O)c2ccc(CO)cc2)O[C@@H]2O[C@@]3(C)CC[C@H]4[C@H](C)CC[C@@H]1[C@@]24OO3` (stereo partly specified): the IC50 was determined as 0.07 µM in [24], 57.5 µM in data set [25], 0.07 µM in [27] and 0.07 µM in data set [28]. The “Ratio IC50” value in [17], in data set [19] and in data set [26] was 12.6 each time.
